Source: article PMC3914206

Columns and labels:
panel of 442 kinases [1] = biological target: T1, panel of 442 kinases (Homo sapiens, UniProt O75385); assay type: binding; settings: kinase ULK1; compound concentration 10 µM
T1 construct: purchased KINOMEscan
T1 sequence (O75385 1-1050): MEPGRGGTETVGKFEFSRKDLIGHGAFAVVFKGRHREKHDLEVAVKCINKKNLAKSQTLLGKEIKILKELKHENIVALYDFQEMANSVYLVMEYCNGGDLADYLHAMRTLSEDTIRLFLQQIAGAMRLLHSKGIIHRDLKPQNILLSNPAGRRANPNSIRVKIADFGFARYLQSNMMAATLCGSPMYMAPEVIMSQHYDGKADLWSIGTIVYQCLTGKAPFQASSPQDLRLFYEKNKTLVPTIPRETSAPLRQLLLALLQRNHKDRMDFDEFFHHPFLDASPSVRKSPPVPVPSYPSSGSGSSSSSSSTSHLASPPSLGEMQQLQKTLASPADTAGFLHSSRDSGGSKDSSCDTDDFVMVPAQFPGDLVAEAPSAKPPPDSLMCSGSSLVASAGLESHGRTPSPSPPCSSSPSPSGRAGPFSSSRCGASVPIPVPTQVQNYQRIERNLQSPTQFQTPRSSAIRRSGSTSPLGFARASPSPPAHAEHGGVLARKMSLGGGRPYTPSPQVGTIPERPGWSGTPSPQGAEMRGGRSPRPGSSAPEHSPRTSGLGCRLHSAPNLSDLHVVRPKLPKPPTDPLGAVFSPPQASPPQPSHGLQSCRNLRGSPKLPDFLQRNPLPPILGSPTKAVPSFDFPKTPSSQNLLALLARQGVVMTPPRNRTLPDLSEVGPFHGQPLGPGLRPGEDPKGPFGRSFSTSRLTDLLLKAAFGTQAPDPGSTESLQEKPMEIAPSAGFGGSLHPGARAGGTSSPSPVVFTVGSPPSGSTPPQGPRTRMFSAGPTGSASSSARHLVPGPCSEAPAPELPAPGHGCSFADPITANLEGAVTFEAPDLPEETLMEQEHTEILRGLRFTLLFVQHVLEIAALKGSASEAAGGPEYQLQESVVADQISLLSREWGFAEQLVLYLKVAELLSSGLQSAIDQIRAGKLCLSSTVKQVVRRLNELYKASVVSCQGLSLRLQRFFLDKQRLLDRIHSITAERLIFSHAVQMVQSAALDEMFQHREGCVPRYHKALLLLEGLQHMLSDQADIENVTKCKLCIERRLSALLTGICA
Text: (§1) We assessed the selectivity of members of this scaffold using the KINOMEscan methodology across a near comprehensive panel of 442 kinases [[18,27]].

panel of 442 kinases [2] = biological target: T2, panel of 442 kinases (Homo sapiens, UniProt P42685); assay type: binding; settings: Compound Concentration 10 µM
T2 construct: purchased KINOMEscan
T2 sequence (P42685 whole entry): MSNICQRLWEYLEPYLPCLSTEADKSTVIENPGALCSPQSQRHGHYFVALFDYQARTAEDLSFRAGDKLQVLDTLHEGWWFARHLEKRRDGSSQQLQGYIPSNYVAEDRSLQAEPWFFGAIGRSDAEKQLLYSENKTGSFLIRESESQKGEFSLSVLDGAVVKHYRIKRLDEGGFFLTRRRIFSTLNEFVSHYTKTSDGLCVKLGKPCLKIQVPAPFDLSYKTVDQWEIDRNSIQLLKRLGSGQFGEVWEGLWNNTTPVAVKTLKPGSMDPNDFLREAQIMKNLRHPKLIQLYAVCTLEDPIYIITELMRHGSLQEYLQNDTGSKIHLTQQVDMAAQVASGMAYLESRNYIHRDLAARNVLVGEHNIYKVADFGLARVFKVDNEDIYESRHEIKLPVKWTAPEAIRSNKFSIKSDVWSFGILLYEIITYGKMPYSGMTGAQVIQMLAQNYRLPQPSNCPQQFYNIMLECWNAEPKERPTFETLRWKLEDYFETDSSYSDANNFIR
Text: as §1

SMILES | % Ctrl, ULK1 (panel of 442 kinases [1]) [% Ctrl] | KINOMEscan: FRK (panel of 442 kinases [2])
COc1cc(C(=O)N2CCC(N3CCN(C)CC3)CC2)ccc1Nc1ncc2c(n1)N1CCc3cccc(c31)C(=O)N2C [Compound 24] | 100 | 56
CCOc1cc(C(=O)N2CCC(N3CCN(C)CC3)CC2)ccc1Nc1ncc2c(n1)N(C1CCCC1)c1ccccc1C(=O)N2C [Compound 26] | 100 | 87
COc1cc(C(=O)N2CCC(N3CCN(C)CC3)CC2)ccc1Nc1ncc2c(n1)N(C1CCCC1)c1ccccc1C(=O)N2C [Compound 25, 11-cyclopentyl-2-((2-methoxy-4-(4-(4-methylpiperazin-1-yl)piperidine-1-carbonyl)phenyl)amino)-5-methyl-5H-benzo[e]pyrimido[5,4-b][1,4]diazepin-6(11H)-one] | 100 | 24
COc1cc(C(=O)N2CCC(N3CCN(C)CC3)CC2)ccc1Nc1ncc2c(n1)N(C)c1ccccc1C(=O)N2C [15 (LRRK2-IN-1)] | 80 | 34
